Experimental data from patent US20220347085A1, “REPELLENT COMPOSITION AND USES” (Université Bourgogne, priority 2019, published 2022).

Legend:
Format in all cases: in vivo
[1] = test system: Drosophila melanogaster; experiment: Test of the reversible effect (waking from anesthesia), Drosophila melanogaster; details: after 10 minutes at 2%, then placed in empty device
Description: Test of the Reversible Effect.
The devices used were those described for the study of the anesthesia such as described in example 2 above. The application conditions for the propanoic acid or the butyric acid were similar to those of the anesthesia test described in example 2 above. The flies were brought into the presence of 2% propanoic acid or 2% butyric acid for 10 minutes. At the end of 10 minutes of observation of the anesthesia (example 2 above), the flies were removed from the device and placed into another device which was identical but “empty”, i.e. without solvent or odor (odor=2% propanoic acid in the solvent or 2% butyric acid in the solvent, respectively). For each empty device, the total number of flies introduced and observed were 20 males and 30 females previously exposed to 2% propanoic acid and removed from this anesthetizing environment, and 6 males and 7 females previously exposed to 2% butyric acid and removed from this anesthetizing environment.
The flies were considered as woken from the anesthesia when they got back up on their legs and moved in the device.
The time required for waking the flies following their anesthesia was then measured.

[2] = test system: Drosophila suzukii; experiment: Courtship of male Drosophila suzukii towards females, olfactory exposure; details: compared with solvent alone, 10 min observation
Description: Drosophilae (Drosophila melanogaster) aged from 3 to 9 days are used for the courtship tests according to the method described above.
Naive males were isolated in tubes, individually, upon emerging from their puparium.
The females were selected to be virgin and were stored in tubes of 10 individuals. These tubes were placed in an inclined manner in incubators, for which a temperature of 25° C. was kept constant. A 12 hour-12 hour day/night cycle was applied. The courtship tests were carried out in the morning, between 1 and 3 hours after the start of the day cycle.
At the time of the test, a 6 mm disk of filter paper (Whatman, filter paper 42) was deposited per alveolus of the device for studying the courtship behavior. Each alveolus was cylindrical, transparent and closed, and of a volume of 1.52 or 0.9 cm^3. FIG. 16 is a schematic representation of an alveolus of the device used.
The paper was then soaked in 10 μl of a composition of 0.1%, 0.5% or 1% propionic acid, or 0.1%, 0.5% or 1% butyric acid, or a mixture comprising 0.1% propionic acid and 0.1% butyric acid, 0.25% propionic acid and 0.25% butyric acid or 0.5% propionic acid and 0.5% butyric acid. A gauze (netting) makes it possible to physically isolate the drosophilae from the odor. 6 pairs (one per alveolus) were observed independently. Each pair was made up of one male and one intact female, each originating from the tubes mentioned above.
The behavior was filmed for 10 minutes, under white light, using a Sony HDR-XR550 camera. Each film was recorded and then analyzed. For each concentration of the compositions used, the number of pairs of flies was, respectively, 33, 39, 27, 38, 33, 27, 12, 6 and 12.
A negative control was carried out comprising only the solvent, i.e. paraffin oil, in order to verify the absence of an effect of the solvent on the flies.
A courtship percentage was calculated, and represents the time during which the male courts the female during the 10 minutes of observation (recording). The courtship of the Drosophila suzukii is decomposed into recognizable stereotypical events, and described precisely in scientific literature (Revadi S et al., Insects 2015 [4]). Statistical tests, i.e. a Kruskal-Wallis test followed by a post-hoc Dunn's Multiple Comparison Test, were carried out (GraphFad, Prism6) in order to evaluate the influence, on the behavior, of the composition in which the paper is soaked; this involving a release of volatile compounds and an odor perceived by the drosophilae.

[3] = test system: Drosophila suzukii; experiment: Anesthesia test, Drosophila suzukii; details: 2% in paraffin oil
Description: The devices used were similar to the devices for studying the courtship (example 1 above), except for the volume of the space into which the files were introduced, which was 45.24 or 22.62 cm^3. 9 discs of filter paper (Whatman, filter paper 42), each soaked in 10 μl of a composition comprising butyric acid and/or propionic acid and/or a derivative of propionic acid diluted in paraffin oil were deposited in the device. The different compositions used comprised, respectively, 2% propionic acid or 2% butyric acid or 5% ethyl propanoate or 10% ethyl propanoate or 30% ethyl propanoate. For each composition, the number of flies was, respectively, 30 and 24 males, 30 and 11 females for Drosophila melanogaster, and 24, 16 and 4 males, 28, 26, 6, 5 and 4 females for Drosophila suzukii. In order to avoid any contact of the flies with the soaked disks of paper, a gauze (netting) was arranged above said papers. The drosophilae could move freely on said gauze. The quantity of compound, butyric acid or propionic acid, or of ethyl propanoate (odor) volatilized in the behavior chamber was equivalent to that of the device used for the courtship. Likewise, the flies were never in direct contact with the composition (no taste perception), only with the volatile particles (olfactory perception). The flies tested were introduced simultaneously, by group, into the enclosure. Their behavior was filed for 10 minutes, and a time required for leading to anesthesia was calculated over this period, depending on the concentration of butyric acid or propionic acid or ethyl propanoate used. The flies were considered anesthetized when they stopped moving and fell on their side.

[4] = test system: Bactrocera oleae; experiment: Courtship of male Bactrocera oleae towards females, olfactory exposure
Description: 1. […] Insect Behay. 2012 [6] and Menage Cindy, personal communication). Naive males were isolated in tubes, individually, upon emerging from their puparium. The females were selected to be virgin and were stored in tubes, together. These tubes were placed in an inclined manner in incubators, for which a temperature of 25° C. was kept constant. A 12 hour/12 hour day/night cycle was applied. […] Each alveolus was cylindrical, transparent and closed, and of a volume of 5.9 cm^3. FIG. 16 is a schematic representation of an alveolus of the device used. • The papers were then each soaked in […] of a composition of 2%, 4% or 5% propionic acid. A gauze (netting) made it possible to physically isolate the B. ° lea from the odor corresponding to the propionic acid. 2 pairs (one per alveolus) were observed independently. Each pair was made up of one male and one female, each originating from the tubes mentioned above. • The behavior was filmed for 10 minutes, under white light, using a Basler acA1920-155 um USB 3.0 camera. Each film was recorded (Basler Video Recording Software V1.3) and then analyzed. For each concentration of the compositions used, the number of pairs of flies was, respectively, 2, 5, 2, 2, 2 and 6, 6, 4, 4. • A negative control was carried out comprising only the solvent, i.e. paraffin oil, in order to verify the absence of an effect of the solvent on the flies.
A courtship percentage was calculated, and represents the time during which the male courts the female during the 10 minutes of observation (recording). The different steps consist in movement of the wings (rapid “buzzing” and/or vertical vibrations), face movements, lateral movements, “dances” in rapid circles and in the direction of the female (Benelli, J. Insect Beahv 2012 [6] and Ménagé Cindy, personal communication).

SMILES	time required to wake up fully from the anesthesia ([1]; females) [min]	time required to wake up fully from the anesthesia ([1]; males) [min]	proportion of courtship of males towards females ([2]; 0.5% (v/v) in paraffin oil)	proportion of courtship of males towards females ([2]; 1% (v/v) in paraffin oil)	time elapsed leading to anesthesia ([3]; female flies (FIG. 17))	time elapsed leading to anesthesia ([3]; male flies and female flies)	courtship of males towards females ([4]; 2% in solvent, flies aged 3 to 6 days, compared with solvent alone)	courtship of males towards females ([4]; 2% in solvent, flies aged 13 to 19 days, compared with solvent alone)	courtship of males towards females ([4]; 4% in solvent, flies aged 3 to 6 days)	courtship of males towards females ([4]; 5% in solvent, flies aged 3 to 6 days)	courtship of males towards females ([4]; 5% in solvent, flies aged 13 to 19 days, compared with solvent alone)
CCCC(=O)O [butyric acid]	4.5	6	significantly reduced	significantly reduced	approximately 5 minutes	approximately 5 minutes					
CCC(=O)O [propionic acid]	9	23	significantly reduced	significantly reduced	approximately 4 minutes	approximately 4 minutes	significantly reduced	significantly reduced	virtually nonexistent	virtually nonexistent	significantly reduced
